From US11414422B2, “Substituted pyrido[4,3-b]indoles and azepino[4,5-b]indoles as inhibitors of cGAS” (The Rockefeller University, priority 2018, dated 2022)
Read-outs that look alike come from different tables or passages of the source.

Assays:
[1] = target: T1, h-cGAS (Homo sapiens, UniProt Q8N884); test: cGAS biochemical assay, RapidFire 365 mass spectrometry (RF-MS); settings: full-length h-cGAS 100 nM, dsDNA 25 nM, ATP and GTP 100 μM, 7 h at RT
T1 construct: The final concentration of full-length h-cGAS, dsDNA, ATP, and GTP were 100 nM

[2] = tested on: THP1-Dual cells; test: Cell-based Lucia luciferase assay in THP1-Dual cells (dsDNA transfection); settings: Homo sapiens, 1 h pre-incubation, 100-bp dsDNA transfection for 24 h
[3] = tested on: THP1 cells; test: IFNB1 mRNA expression, qRT-PCR, THP1 cells; assay type: cell-based; settings: Homo sapiens, read-out: THP1, qRT-PCR IC50
[4] = tested on: primary human macrophage cells; test: IFNB1 mRNA expression, qRT-PCR, primary human macrophages; assay type: cell-based; settings: read-out: Human Macrophage, qRT-PCR IC50
[5] = tested on: human PBMCs; test: IFNB1 mRNA expression, qRT-PCR, human PBMCs; assay type: cell-based; settings: PBMC, 4 hours post-transfection of dsDNA
[6] = THP-1, IFNB1 mRNA, 4 hours post-transfection of dsDNA
[7] = IFNB1 mRNA, 4 hours post-transfection of dsDNA
[8] = fresh PBMCs, read-out: Fresh human PBMCs, qRT-PCR IC50

T1 sequence (Q8N884 whole entry): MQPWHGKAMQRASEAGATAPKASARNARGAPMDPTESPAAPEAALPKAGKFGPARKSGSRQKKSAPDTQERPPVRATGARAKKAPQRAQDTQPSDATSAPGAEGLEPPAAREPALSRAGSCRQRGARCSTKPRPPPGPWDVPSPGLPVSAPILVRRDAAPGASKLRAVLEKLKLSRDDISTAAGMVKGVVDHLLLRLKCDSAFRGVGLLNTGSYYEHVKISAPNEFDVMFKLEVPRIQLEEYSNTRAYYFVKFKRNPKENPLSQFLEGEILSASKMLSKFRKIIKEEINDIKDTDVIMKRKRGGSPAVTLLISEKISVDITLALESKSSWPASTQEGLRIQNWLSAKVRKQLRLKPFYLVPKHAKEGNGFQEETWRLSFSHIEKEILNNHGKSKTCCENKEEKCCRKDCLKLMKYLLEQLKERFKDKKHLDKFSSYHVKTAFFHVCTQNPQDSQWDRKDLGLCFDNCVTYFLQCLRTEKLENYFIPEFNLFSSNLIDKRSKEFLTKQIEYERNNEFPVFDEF

Row | Structure (SMILES) | IC50 [1] | IC50 [2] | IC50 [3, 6] | IC50 [4, 7] | IC50 [5, 8] | IC50 ([3]; THP-1, 4 h) | IC50 ([4]; 4 h) | IC50 ([5]; freeze-thawed PBMCs, read-out: Freeze-thawed human PBMCs, qRT-PCR IC50)
1 | Cn1ccc(-c2cc(Cl)c(Cl)c3[nH]c4c(c23)CN(C(=O)CO)CC4)n1 [TDI-008077] | 0.0146 µM | 3.32 µM | 0.93 µM | 0.86 µM | 1.15 µM | – | – | –
2 | O=C(CO)N1CCc2[nH]c3c(Cl)c(Cl)cc(-c4cn[nH]c4)c3c2C1 [TDI-007445, 1-(6,7-Dichloro-9-(1H-pyrazol-4-yl)-1,3,4,5-tetrahydro-2H-pyrido[4,3-b]indol-2-yl)-2-hydroxyethan-1-one] | – | 5.26 µM | 1.44 µM | 1.2 µM | – | – | – | –
3 | Nc1ccc(-c2cc(Cl)c(Cl)c3[nH]c4c(c23)CN(C(=O)CO)CC4)cn1 [TDI-008087] | – | 1.97 µM | – | – | – | 0.95 µM | 0.62 µM | –
4 | Cn1ccc(-c2cc(Cl)c(F)c3[nH]c4c(c23)CN(C(=O)CO)CC4)n1 [TDI-008246, 1-(7-Chloro-6-fluoro-9-(1-methyl-1H-pyrazol-3-yl)-1,3,4,5-tetrahydro-2H-pyrido[4,3-b]indol-2-yl)-2-hydroxyethan-1-one] | 0.023 µM | 1.7 µM | 1.09 µM | 0.6 µM | 1.12 µM | – | – | 1.16 µM
5 | Cn1cc(-c2cc(Cl)c(Cl)c3[nH]c4c(c23)CN(C(=O)CO)CC4)cn1 [TDI-007635] | 0.0428 µM | 8.14 µM | 2.14 µM | – | – | – | – | –
6 | COCCn1c2c(c3c(-c4ccn(C)n4)cc(Cl)c(F)c31)CN(C(=O)CO)CC2 [TDI-008292] | 0.402 µM | > 40 µM | – | – | – | – | – | –
7 | O=C(CO)N1CCc2[nH]c3c(F)c(Cl)cc(-n4cccn4)c3c2C1 [TDI-009013, 1-(7-chloro-6-fluoro-9-pyrazol-1-yl-1,3,4,5-tetrahydropyrido [4,3-b]indol-2-yl)-2-hydroxy-ethanone] | 0.583 µM | > 40 µM | – | – | – | – | – | –
8 | O=C(CO)N1CCc2[nH]c3c(Cl)c(Cl)cc(-c4cccnc4)c3c2C1 [TDI-008073] | 0.0204 µM | 6.23 µM | – | – | – | – | – | –
9 | Cn1c2c(c3ccc(Cl)c(F)c31)CN(C(=O)CO)CC2 [TDI-006570] | 0.138 µM | > 40 µM | – | – | – | – | – | –
